Data reported in US20250171438A1 (Agios Pharmaceuticals, Inc., priority 2022, published 2025).

target: T1, human PAH with the R408W mutation (Homo sapiens, UniProt P00439, R408W); test: Cell Based Phenylalanine Flux Assay; conditions: A375 cells expressing human R408W PAH; 24 hrs compound incubation; 13C-Tyrosine by LC-MS; average where tested multiple times; read-out: AC50
T1 construct: expressed in transfected cells
T1 sequence (P00439 1-452 R408W): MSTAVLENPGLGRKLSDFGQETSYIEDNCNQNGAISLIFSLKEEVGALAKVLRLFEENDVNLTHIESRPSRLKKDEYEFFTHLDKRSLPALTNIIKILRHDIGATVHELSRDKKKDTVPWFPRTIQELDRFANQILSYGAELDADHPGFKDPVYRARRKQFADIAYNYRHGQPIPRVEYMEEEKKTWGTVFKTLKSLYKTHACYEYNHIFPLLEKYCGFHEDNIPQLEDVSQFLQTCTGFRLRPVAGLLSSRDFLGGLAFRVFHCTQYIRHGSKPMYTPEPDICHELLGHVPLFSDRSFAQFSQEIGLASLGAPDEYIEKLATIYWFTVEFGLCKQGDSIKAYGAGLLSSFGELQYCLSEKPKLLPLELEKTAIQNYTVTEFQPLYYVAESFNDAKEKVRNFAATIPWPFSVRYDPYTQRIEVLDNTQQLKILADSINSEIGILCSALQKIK

Row | SMILES | AC50
1 | O=C(c1cnc(-c2cnn(CC(F)(F)F)c2)o1)N1CCc2[nH]cnc2[C@@H]1c1nc2ccccc2s1 [Example 1392, (R)-(4-(benzo[d]thiazol-2-yl)-6,7-dihydro-1H-imidazo[4,5-c]pyridin-5(4H)-yl)(2-(1-(2,2,2-trifluoroethyl)-1H-pyrazol-4-yl)oxazol-5-yl)methanone] | 1000 to 5000 nM
2 | Cc1nc(C(F)(F)F)oc1C(=O)N1CCc2[nH]cnc2[C@H]1c1nc2ccccc2s1 [Example 1393] | < 500 nM
3 | Cc1nc(C(F)(F)F)oc1C(=O)N1CCc2[nH]cnc2[C@@H]1c1nc2ccccc2s1 [Example 1394, (R)-(4-(benzo[d]thiazol-2-yl)-6,7-dihydro-1H-imidazo[4,5-c]pyridin-5(4H)-yl)(4-methyl-2-(trifluoromethyl)oxazol-5-yl)methanone] | 1000 to 5000 nM
4 | Cc1nc(C2CC2)oc1C(=O)N1CCc2[nH]cnc2[C@H]1c1nc2ccccc2s1 [Example 1395] | < 500 nM
5 | Cc1nc(C2CC2)oc1C(=O)N1CCc2[nH]cnc2[C@@H]1c1nc2ccccc2s1 [Example 1396, (R)-(4-(benzo[d]thiazol-2-yl)-6,7-dihydro-1H-imidazo[4,5-c]pyridin-5(4H)-yl)(2-cyclopropyl-4-methyloxazol-5-yl)methanone] | > 5000 nM
6 | Cc1nc(C(C)C)oc1C(=O)N1CCc2[nH]cnc2[C@H]1c1nc2ccccc2s1 [Example 1397] | < 500 nM
7 | Cc1nc(C(C)C)oc1C(=O)N1CCc2[nH]cnc2[C@@H]1c1nc2ccccc2s1 [Example 1398, (R)-(4-(benzo[d]thiazol-2-yl)-6,7-dihydro-1H-imidazo[4,5-c]pyridin-5(4H)-yl)(2-isopropyl-4-methyloxazol-5-yl)methanone] | 1000 to 5000 nM
8 | Cc1nc(CC2CC2)oc1C(=O)N1CCc2[nH]cnc2[C@H]1c1nc2ccccc2s1 [Example 1399] | < 500 nM
9 | Cc1nc(CC2CC2)oc1C(=O)N1CCc2[nH]cnc2[C@@H]1c1nc2ccccc2s1 [Example 1400, (R)-(4-(benzo[d]thiazol-2-yl)-6,7-dihydro-1H-imidazo[4,5-c]pyridin-5(4H)-yl)(2-(cyclopropylmethyl)-4-methyloxazol-5-yl)methanone] | 1000 to 5000 nM
10 | O=C(c1cnc(C(F)(F)F)o1)N1CCc2[nH]cnc2[C@H]1c1nc2c(F)cccc2s1 [Example 1401, (S)-(4-(4-fluorobenzo[d]thiazol-2-yl)-6,7-dihydro-1H-imidazo[4,5-c]pyridin-5(4H)-yl)(2-(trifluoromethyl)oxazol-5-yl)methanone] | < 500 nM
11 | O=C(c1cnc(C(F)(F)F)o1)N1CCc2[nH]cnc2[C@@H]1c1nc2c(F)cccc2s1 [Example 1402, (R)-(4-(4-fluorobenzo[d]thiazol-2-yl)-6,7-dihydro-1H-imidazo[4,5-c]pyridin-5(4H)-yl)(2-(trifluoromethyl)oxazol-5-yl)methanone] | 1000 to 5000 nM
12 | O=C(c1cnc(-c2ccnc(C(F)(F)F)c2)s1)N1CCc2[nH]cnc2[C@H]1c1nc2ccccc2s1 [Example 1403] | 500 to 1000 nM
13 | O=C(c1cnc(-c2ccnc(C(F)(F)F)c2)s1)N1CCc2[nH]cnc2[C@@H]1c1nc2ccccc2s1 [Example 1404, (R)-(4-(benzo[d]thiazol-2-yl)-6,7-dihydro-1H-imidazo[4,5-c]pyridin-5(4H)-yl)(2-(2-(trifluoromethyl)pyridin-4-yl)thiazol-5-yl)methanone] | 1000 to 5000 nM
14 | Cc1nn(C)c(C)c1-c1ncc(C(=O)N2CCc3[nH]cnc3[C@H]2c2nc3ccccc3s2)s1 [Example 1405] | < 500 nM
15 | Cc1nn(C)c(C)c1-c1ncc(C(=O)N2CCc3[nH]cnc3[C@@H]2c2nc3ccccc3s2)s1 [Example 1406, (R)-(4-(benzo[d]thiazol-2-yl)-6,7-dihydro-1H-imidazo[4,5-c]pyridin-5(4H)-yl)(2-(1,3,5-trimethyl-1H-pyrazol-4-yl)thiazol-5-yl)methanone] | 500 to 1000 nM
16 | Cn1ncc(-c2ncc(C(=O)N3CCc4[nH]cnc4[C@H]3c3nc4ccccc4s3)s2)c1C(F)(F)F [Example 1407] | < 500 nM
17 | Cn1ncc(-c2ncc(C(=O)N3CCc4[nH]cnc4[C@@H]3c3nc4ccccc4s3)s2)c1C(F)(F)F [Example 1408, (R)-(4-(benzo[d]thiazol-2-yl)-6,7-dihydro-1H-imidazo[4,5-c]pyridin-5(4H)-yl)(2-(1-methyl-5-(trifluoromethyl)-1H-pyrazol-4-yl)thiazol-5-yl)methanone] | 1000 to 5000 nM
18 | O=C(c1cnn(C(F)F)c1)N1CCc2[nH]cnc2[C@H]1c1nc2ccccc2s1 [Example 1409] | 500 to 1000 nM
19 | O=C(c1cnn(C(F)F)c1)N1CCc2[nH]cnc2[C@@H]1c1nc2ccccc2s1 [Example 1410, (R)-(4-(benzo[d]thiazol-2-yl)-6,7-dihydro-1H-imidazo[4,5-c]pyridin-5(4H)-yl)(1-(difluoromethyl)-1H-pyrazol-4-yl)methanone] | > 5000 nM
20 | O=C(c1cnn(-c2ccc(F)cc2)c1)N1CCc2[nH]cnc2[C@H]1c1nc2ccccc2s1 [Example 1411] | < 500 nM

Row | SMILES | AC50
21 | O=C(c1cnn(-c2ccc(F)cc2)c1)N1CCc2[nH]cnc2[C@@H]1c1nc2ccccc2s1 [Example 1412, (R)-(4-(benzo[d]thiazol-2-yl)-6,7-dihydro-1H-imidazo[4,5-c]pyridin-5(4H)-yl)(1-(4-fluorophenyl)-1H-pyrazol-4-yl)methanone] | 1000 to 5000 nM
22 | Cc1nc(-c2cnn(CC(F)(F)F)c2)oc1C(=O)N1CCc2[nH]cnc2[C@H]1c1nc2ccccc2s1 [Example 1413] | < 500 nM
23 | Cc1nc(-c2cnn(CC(F)(F)F)c2)oc1C(=O)N1CCc2[nH]cnc2[C@@H]1c1nc2ccccc2s1 [Example 1414, (R)-(4-(benzo[d]thiazol-2-yl)-6,7-dihydro-1H-imidazo[4,5-c]pyridin-5(4H)-yl)(4-methyl-2-(1-(2,2,2-trifluoroethyl)-1H-pyrazol-4-yl)oxazol-5-yl)methanone] | 1000 to 5000 nM
24 | CC(C)n1cc(-c2ncc(C(=O)N3CCc4[nH]cnc4[C@H]3c3nc4ccccc4s3)o2)cn1 [Example 1415] | < 500 nM
25 | CC(C)n1cc(-c2ncc(C(=O)N3CCc4[nH]cnc4[C@@H]3c3nc4ccccc4s3)o2)cn1 [Example 1416, (R)-(4-(benzo[d]thiazol-2-yl)-6,7-dihydro-1H-imidazo[4,5-c]pyridin-5(4H)-yl)(2-(1-isopropyl-1H-pyrazol-4-yl)oxazol-5-yl)methanone] | 1000 to 5000 nM
26 | O=C(c1nnc(-c2ccccc2)o1)N1CCc2[nH]cnc2[C@H]1c1nc2ccccc2s1 [Example 1417] | < 500 nM
27 | O=C(c1nnc(-c2ccccc2)o1)N1CCc2[nH]cnc2[C@@H]1c1nc2ccccc2s1 [Example 1418, (R)-(4-(benzo[d]thiazol-2-yl)-6,7-dihydro-1H-imidazo[4,5-c]pyridin-5(4H)-yl)(5-phenyl-1,3,4-oxadiazol-2-yl)methanone] | 1000 to 5000 nM
28 | O=C(c1nnc(-c2ccccc2)s1)N1CCc2[nH]cnc2[C@H]1c1nc2ccccc2s1 [Example 1419] | < 500 nM
29 | O=C(c1nnc(-c2ccccc2)s1)N1CCc2[nH]cnc2[C@@H]1c1nc2ccccc2s1 [Example 1420, (R)-(4-(benzo[d]thiazol-2-yl)-6,7-dihydro-1H-imidazo[4,5-c]pyridin-5(4H)-yl)(5-phenyl-1,3,4-thiadiazol-2-yl)methanone] | > 5000 nM
30 | CC(C)(C)c1ncc(C(=O)N2CCc3[nH]cnc3[C@H]2c2nc3ccccc3s2)s1 [Example 1421] | < 500 nM
31 | CC(C)(C)c1ncc(C(=O)N2CCc3[nH]cnc3[C@@H]2c2nc3ccccc3s2)s1 [Example 1422, (R)-(4-(benzo[d]thiazol-2-yl)-6,7-dihydro-1H-imidazo[4,5-c]pyridin-5(4H)-yl)(2-(tert-butyl)thiazol-5-yl)methanone] | 1000 to 5000 nM
32 | Cc1nc(-c2cnn(C(C)C)c2)oc1C(=O)N1CCc2[nH]cnc2[C@H]1c1nc2ccccc2s1 [Example 1423] | < 500 nM
33 | Cc1nc(-c2cnn(C(C)C)c2)oc1C(=O)N1CCc2[nH]cnc2[C@@H]1c1nc2ccccc2s1 [Example 1424, (R)-(4-(benzo[d]thiazol-2-yl)-6,7-dihydro-1H-imidazo[4,5-c]pyridin-5(4H)-yl)(2-(1-isopropyl-1H-pyrazol-4-yl)-4-methyloxazol-5-yl)methanone] | 1000 to 5000 nM
34 | CC(C)(C)c1ncc(C(=O)N2CCc3[nH]cnc3[C@H]2c2nc3c(F)cccc3s2)s1 [Example 1425] | < 500 nM
35 | CC(C)(C)c1ncc(C(=O)N2CCc3[nH]cnc3[C@@H]2c2nc3c(F)cccc3s2)s1 [Example 1426, (R)-(2-(tert-butyl)thiazol-5-yl)(4-(4-fluorobenzo[d]thiazol-2-yl)-6,7-dihydro-1H-imidazo[4,5-c]pyridin-5(4H)-yl)methanone] | 500 to 1000 nM
36 | CC(C)(C)c1ncc(C(=O)N2CCc3[nH]cnc3[C@H]2c2nc3ccccc3s2)o1 [Example 1427] | < 500 nM
37 | CC(C)(C)c1ncc(C(=O)N2CCc3[nH]cnc3[C@@H]2c2nc3ccccc3s2)o1 [Example 1428, (R)-(4-(benzo[d]thiazol-2-yl)-6,7-dihydro-1H-imidazo[4,5-c]pyridin-5(4H)-yl)(2-(tert-butyl)oxazol-5-yl)methanone] | 500 to 1000 nM
38 | CC(C)(C)c1ncc(C(=O)N2CCc3[nH]cnc3[C@@H]2c2nc3c(F)cccc3s2)o1 [Example 1429, (R)-(2-(tert-butyl)oxazol-5-yl)(4-(4-fluorobenzo[d]thiazol-2-yl)-6,7-dihydro-1H-imidazo[4,5-c]pyridin-5(4H)-yl)methanone] | 500 to 1000 nM
39 | CC(C)(C)c1ncc(C(=O)N2CCc3[nH]cnc3[C@H]2c2nc3c(F)cccc3s2)o1 [Example 1430] | < 500 nM
